Source: ChEMBL document CHEMBL5614445, “Asymmetric Dirhodium-Catalyzed Modification of Immunomodulatory Imide Drugs and Their Biological Assessment” (ACS Med Chem Lett, 2024)

Columns and labels:
Type in all cases: cell-based
[1] = target: T1, Eukaryotic peptide chain release factor GTP-binding subunit ERF3A (Homo sapiens, UniProt P15170); test: Induction of ePL tagged GSPT1 degradation in human DF15 cells assessed as remaining protein level incubated for 60 mins by luminescence reader assay relative to control
T1 sequence (P15170 whole entry): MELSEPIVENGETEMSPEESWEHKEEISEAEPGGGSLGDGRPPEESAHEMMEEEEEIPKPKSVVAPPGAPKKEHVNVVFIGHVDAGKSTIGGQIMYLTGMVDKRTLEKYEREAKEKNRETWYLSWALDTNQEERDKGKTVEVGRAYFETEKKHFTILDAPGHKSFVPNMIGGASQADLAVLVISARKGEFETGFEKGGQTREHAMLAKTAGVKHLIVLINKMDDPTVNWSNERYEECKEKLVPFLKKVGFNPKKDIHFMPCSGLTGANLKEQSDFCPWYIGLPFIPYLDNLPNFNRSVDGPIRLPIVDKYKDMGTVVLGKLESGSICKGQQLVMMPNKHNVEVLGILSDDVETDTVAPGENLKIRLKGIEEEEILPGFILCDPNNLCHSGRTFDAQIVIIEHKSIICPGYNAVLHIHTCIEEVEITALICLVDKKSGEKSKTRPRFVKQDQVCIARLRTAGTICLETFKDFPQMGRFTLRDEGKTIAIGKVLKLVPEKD

[2] = target: Zinc finger protein Aiolos (Homo sapiens) (UniProt Q9UKT9); test: Induction of N-terminal HiBiT tag knocked in IKZF3 degradation in human DF15 cells assessed as remaining protein level incubated for 60 mins by Nano-Glo HiBiT lytic reagent based assay relative to control
Zinc finger protein Aiolos (Homo sapiens), sequence (Q9UKT9 whole entry): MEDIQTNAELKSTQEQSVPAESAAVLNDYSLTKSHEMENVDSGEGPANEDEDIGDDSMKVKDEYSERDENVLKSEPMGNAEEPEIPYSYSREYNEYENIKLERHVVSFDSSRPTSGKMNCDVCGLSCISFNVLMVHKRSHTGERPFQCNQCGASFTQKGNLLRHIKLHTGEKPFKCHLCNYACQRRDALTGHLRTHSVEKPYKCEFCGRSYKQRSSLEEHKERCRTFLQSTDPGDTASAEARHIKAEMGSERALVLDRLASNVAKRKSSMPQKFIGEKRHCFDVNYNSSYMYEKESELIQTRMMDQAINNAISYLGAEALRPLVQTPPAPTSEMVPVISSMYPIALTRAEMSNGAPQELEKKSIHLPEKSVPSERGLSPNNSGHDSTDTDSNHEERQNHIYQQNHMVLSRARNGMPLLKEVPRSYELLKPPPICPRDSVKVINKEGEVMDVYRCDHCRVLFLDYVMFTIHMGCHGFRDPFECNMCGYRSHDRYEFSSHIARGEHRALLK

[3] = target: T1, Eukaryotic peptide chain release factor GTP-binding subunit ERF3A; test: Induction of ePL tagged GSPT1 degradation in human DF15 cells incubated for 60 mins by luminescence reader assay; conditions: read-out: EC50 (the source's name)
[4] = target: Casein kinase I isoform alpha (Homo sapiens) (UniProt P48729); test: Induction of ePL tagged CK1alpha degradation in human MDS-L cells assessed as remaining protein level incubated for 60 mins by luminescence reader assay relative to control
Casein kinase I isoform alpha (Homo sapiens), sequence (P48729 2-337 limits assumed): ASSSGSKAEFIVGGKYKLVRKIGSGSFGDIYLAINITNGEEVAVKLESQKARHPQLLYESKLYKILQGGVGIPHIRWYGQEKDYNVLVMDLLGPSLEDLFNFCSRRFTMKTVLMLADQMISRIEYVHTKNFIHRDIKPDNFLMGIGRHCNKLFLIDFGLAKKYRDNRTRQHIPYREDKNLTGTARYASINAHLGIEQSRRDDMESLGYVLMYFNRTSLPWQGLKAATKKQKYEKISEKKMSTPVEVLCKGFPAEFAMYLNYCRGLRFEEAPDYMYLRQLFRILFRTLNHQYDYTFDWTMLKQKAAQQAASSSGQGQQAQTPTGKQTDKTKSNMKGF

Activity [1] [%] | Activity [2] [%] | SMILES | also measured
100 |  | O=C1CCC(N2C(=O)c3ccc([C@@H]4C[C@]4(C(=O)OCC(Cl)(Cl)Cl)c4ccc(Br)cc4)cc3C2=O)C(=O)N1 (some centres undefined) | 
 | 79 | O=C1CCC(N2Cc3c(cccc3[C@@H]3C[C@]3(C(=O)OCC(Cl)(Cl)Cl)c3ccc(Br)cc3)C2=O)C(=O)N1 (some centres undefined) | 
 | 9.2 | O=C1CCC(N2Cc3c(cccc3C3=C[C@]3(C(=O)OCC(Cl)(Cl)Cl)c3ccc(Br)cc3)C2=O)C(=O)N1 (some centres undefined) | 
 | 99 | O=C1CCC(N2C(=O)c3cccc([C@H]4C[C@@]4(C(=O)OCC(Cl)(Cl)Cl)c4ccc(Br)cc4)c3C2=O)C(=O)N1 (some centres undefined) | 
1.4 |  | O=C1CCC(N2C(=O)c3ccc(C4=C[C@@]4(C(=O)OCC(Cl)(Cl)Cl)c4ccc(Br)cc4)cc3C2=O)C(=O)N1 (some centres undefined) | DC50 [3]: 1400 nM
2.3 |  | O=C1CCC(N2C(=O)c3ccc(C4=C[C@]4(C(=O)OCC(Cl)(Cl)Cl)c4ccc(Br)cc4)cc3C2=O)C(=O)N1 (some centres undefined) | 
 |  | O=C1CCC(N2Cc3cc([C@H]4C[C@@]4(C(=O)OCC(Cl)(Cl)Cl)c4ccc(Br)cc4)ccc3C2=O)C(=O)N1 (some centres undefined) | Activity [4]: 44%
 |  | O=C1CCC(N2Cc3cc([C@@H]4C[C@]4(C(=O)OCC(Cl)(Cl)Cl)c4ccc(Br)cc4)ccc3C2=O)C(=O)N1 (some centres undefined) | Activity [4]: 92%
